The subject of series [1] is IL-6 levels in human whole blood stimulated with a TLR2 agonist. The series can be described thus: IRAK4 Whole Blood Assay (lipoteichoic acid/TLR2-stimulated IL-6). The class given is cell-based. Conditions: Homo sapiens, lipoteichoic acid 10 μg/mL, IL-6 readout. The essentials: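 ACD-A-anticoagulated human whole blood was preincubated with compounds for 60 min at 37 °C under 5% CO2. It was then stimulated with 10 μg/mL lipoteichoic acid (final) in RPMI for 5 h. IL-6 in plasma supernatants was measured by flow cytometry bead assay.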

A short description of another series: Caco Permeability Assay. The note with it: human, Caco-2, Caco-2 cells, 3 μM compound. The class given is in vitro ADME.
Another series concerns the target IRAK4 (Homo sapiens (Human), UniProt Q9NWZ3). The experiment in a line: IRAK4 Inhibition Assay. In kind it is biochemical. Conditions: ATP 500 μM; IRAK4 0.6 nM. The essentials: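 Enzyme 0.6 nM, ATP 500 μM, FL-peptide 1.5 μM, DMSO 1.6%; HEPES pH 7.2/MgCl2/Brij 35/DTT buffer. RT, 60 min, EDTA stop. Mobility-shift product/substrate ratio; % inhib vs no-enzyme and vehicle controls.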

Chain of IRAK4 (Q9NWZ3 whole entry): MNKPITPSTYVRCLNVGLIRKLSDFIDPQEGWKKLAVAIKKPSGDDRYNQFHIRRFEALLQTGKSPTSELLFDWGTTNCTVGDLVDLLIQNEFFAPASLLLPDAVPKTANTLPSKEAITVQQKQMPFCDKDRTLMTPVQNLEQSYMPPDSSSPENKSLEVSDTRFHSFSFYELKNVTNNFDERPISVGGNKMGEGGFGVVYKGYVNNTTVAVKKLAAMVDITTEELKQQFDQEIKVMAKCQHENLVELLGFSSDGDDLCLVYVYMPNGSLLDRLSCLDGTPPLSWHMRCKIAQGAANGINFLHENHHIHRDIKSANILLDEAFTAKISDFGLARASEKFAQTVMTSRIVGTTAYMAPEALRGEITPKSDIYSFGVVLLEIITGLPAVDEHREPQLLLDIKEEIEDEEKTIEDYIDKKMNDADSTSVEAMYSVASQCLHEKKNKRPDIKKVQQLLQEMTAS

As usually defined, the EC50 is the concentration at which the effect is half-maximal. The term Papp denotes a coefficient for how fast a substance crosses the barrier. As a reminder, the IC50 is the midpoint of a concentration-inhibition curve. In series [1], `CC(C)(O)[C@H](F)CNC(=O)c1cnc(-c2cnc3cc(C#N)cnn23)cc1Nc1cnn(CC(F)F)c1` [Example 260, (R)-6-(7-cyanoimidazo[1,2-b]pyridazin-3-yl)-4-((1-(2,2-difluoroethyl)-1H-pyrazol-4-yl)amino)-N-(2-fluoro-3-hydroxy-3-methylbutyl) nicotinamide] yielded an EC50 of 80 nM. In the series “Caco Permeability Assay”, this molecule yielded a Papp at 2 h, 3 µM of less than 1.5 ×10⁻⁶ cm/s. Also, the IC50 at IRAK4 was 3 nM.
In the same order, the values of `CC(C)(O)[C@H](F)CNC(=O)c1cnc(-c2cnc3cc(Cl)cnn23)cc1Nc1cnn(CC(F)F)c1` [Example 262, (R)-6-(7-chloroimidazo[1,2-b]pyridazin-3-yl)-4-((1-(2,2-difluoroethyl)-1H-pyrazol-4-yl)amino)-N-(2-fluoro-3-hydroxy-3-methylbutyl)nicotinamide] are 520 nM, 2.6 ×10⁻⁶ cm/s and 1 nM.
In the same order, the values of `CC(C)(F)[C@H](F)CNC(=O)c1cnc(-c2cnc3cc(Cl)cnn23)cc1Nc1cnn(CC(F)F)c1` [Example 263, (R)-6-(7-chloroimidazo[1,2-b]pyridazin-3-yl)-N-(2,3-difluoro-3-methylbutyl)-4-((1-(2,2-difluoroethyl)-1H-pyrazol-4-yl)amino)nicotinamide] are 300 nM, 21.3 ×10⁻⁶ cm/s and 2 nM.
`CC(F)(F)Cn1cc(Nc2cc(-c3cnc4cc(C#N)cnn34)ncc2C(=O)NC[C@@H](F)C(C)(C)O)cn1` [Example 265, (R)-6-(7-cyanoimidazo[1,2-b]pyridazin-3-yl)-4-((1-(2,2-difluoropropyl)-1H-pyrazol-4-yl)amino)-N-(2-fluoro-3-hydroxy-3-methylbutyl)nicotinamide] returned an EC50 in series [1] of 440 nM. The Papp at 2 h, 3 µM in “Caco Permeability Assay” was less than 1.5 ×10⁻⁶ cm/s. Besides, the IC50 at IRAK4 was 2 nM.
`CCn1cc(Nc2cc(-c3cnc4cc(Cl)cnn34)ncc2C(=O)NC[C@@H](F)C(C)(C)O)cn1` [Example 266, (R)-6-(7-chloroimidazo[1,2-b]pyridazin-3-yl)-4-((1-ethyl-1H-pyrazol-4-yl)amino)-N-(2-fluoro-3-hydroxy-3-methylbutyl) nicotinamide] registered an EC50 in series [1] of 570 nM. For the same molecule, the Papp at 2 h, 3 µM in the series “Caco Permeability Assay” was 2.9 ×10⁻⁶ cm/s. Further, the IC50 at IRAK4 is 3 nM.
`CCn1cc(Nc2cc(-c3cnc4cc(C#N)cnn34)ncc2C(=O)NC[C@@H](F)C(C)(C)O)cn1` [Example 267, (R)-6-(7-cyanoimidazo[1,2-b]pyridazin-3-yl)-4-((1-ethyl-1H-pyrazol-4-yl)amino)-N-(2-fluoro-3-hydroxy-3-methylbutyl)nicotinamide] yielded an EC50 in series [1] of 130 nM. Further, the Papp at 2 h, 3 µM in “Caco Permeability Assay” was less than 1.5 ×10⁻⁶ cm/s. At IRAK4, the IC50 was found to be 2 nM.
Molecule `CC(C)(O)[C@H](F)CNC(=O)c1cnc(-c2cnc3cc(Cl)cnn23)cc1Nc1cnn(C(F)F)c1` [Example 270, (R)-6-(7-chloroimidazo[1,2-b]pyridazin-3-yl)-4-((1-(difluoromethyl)-1H-pyrazol-4-yl)amino)-N-(2-fluoro-3-hydroxy-3-methylbutyl) nicotinamide] showed an EC50 in series [1] of 820 nM. Further, the apparent permeability coefficient (Papp) at 2 h, 3 µM in the series “Caco Permeability Assay” worked out at 7.8 ×10⁻⁶ cm/s. Moreover, the IC50 on IRAK4 came to 3 nM.
With `CC(C)(O)[C@H](F)CNC(=O)c1cnc(-c2cnc3cc(Cl)cnn23)cc1Nc1cnn(C2CC(F)(F)C2)c1` [Example 277, (R)-6-(7-chloroimidazo[1,2-b]pyridazin-3-yl)-4-((1-(3,3-difluorocyclobutyl)-1H-pyrazol-4-yl)amino)-N-(2-fluoro-3-hydroxy-3-methylbutyl)nicotinamide], the response in series [1] was half-maximal at 490 nM (EC50). For the same molecule, the Papp at 2 h, 3 µM in “Caco Permeability Assay” was found to be 3.6 ×10⁻⁶ cm/s. Also, on IRAK4, the IC50 was determined as 2 nM.
Molecule `CCCn1cc(Nc2cc(-c3cnc4cc(C#N)cnn34)ncc2C(=O)NC[C@@H](F)C(C)(C)O)cn1` [Example 278, (R)-6-(7-cyanoimidazo[1,2-b]pyridazin-3-yl)-N-(2-fluoro-3-hydroxy-3-methylbutyl)-4-((1-propyl-1H-pyrazol-4-yl)amino)nicotinamide] had an EC50 in series [1] of 360 nM. Moreover, the Papp at 2 h, 3 µM in the series “Caco Permeability Assay” was less than 1.5 ×10⁻⁶ cm/s. Also, on IRAK4, the IC50 is 1 nM.

These data come from patent US10618903B2, “Heteroaryl substituted aminopyridine compounds” (BRISTOL-MYERS SQUIBB COMPANY, priority 2015, dated 2020).
